Data on 10 molecules can be found in ChEMBL document CHEMBL2417440, “Experimental and structural testing module to analyze paralogue-specificity and affinity in the Hsp90 inhibitors series” (J Med Chem, 2013).

The source made the active and inactive calls. The calls are words filed in the database; no cut-off is given here.

The target in experiment [1] is T1, Heat shock protein HSP 90-beta (Homo sapiens, UniProt P08238). Briefly: Binding affinity to recombinant HSP90beta (unknown origin) by fluorescence polarization assay. The settings on record: read-out: Kd(app).
The target of experiment [2] is T2, Heat shock protein HSP 90-alpha (Homo sapiens, UniProt P07900). Briefly: Binding affinity to HSP90alpha (unknown origin) by fluorescence polarization assay. The settings on record: read-out: Kd(app). On the technique in general: Polarisation of emitted light reports the rotation of a fluorescent probe.
The target of experiment [3] is T3, Heat shock protein HSP90 (Homo sapiens) (UniProt P07900+P08238). Briefly: Binding affinity to HSP90 in human SKBR3 cell lysates at 3 nM up to 24 hrs by fluorescence polarization assay. The format is protein assay. Conditions: SK-BR-3.
Experiment [4] concerns the target T4, Heat shock protein 75 kDa, mitochondrial (Homo sapiens, UniProt Q12931).
T4 sequence (Q12931 whole entry): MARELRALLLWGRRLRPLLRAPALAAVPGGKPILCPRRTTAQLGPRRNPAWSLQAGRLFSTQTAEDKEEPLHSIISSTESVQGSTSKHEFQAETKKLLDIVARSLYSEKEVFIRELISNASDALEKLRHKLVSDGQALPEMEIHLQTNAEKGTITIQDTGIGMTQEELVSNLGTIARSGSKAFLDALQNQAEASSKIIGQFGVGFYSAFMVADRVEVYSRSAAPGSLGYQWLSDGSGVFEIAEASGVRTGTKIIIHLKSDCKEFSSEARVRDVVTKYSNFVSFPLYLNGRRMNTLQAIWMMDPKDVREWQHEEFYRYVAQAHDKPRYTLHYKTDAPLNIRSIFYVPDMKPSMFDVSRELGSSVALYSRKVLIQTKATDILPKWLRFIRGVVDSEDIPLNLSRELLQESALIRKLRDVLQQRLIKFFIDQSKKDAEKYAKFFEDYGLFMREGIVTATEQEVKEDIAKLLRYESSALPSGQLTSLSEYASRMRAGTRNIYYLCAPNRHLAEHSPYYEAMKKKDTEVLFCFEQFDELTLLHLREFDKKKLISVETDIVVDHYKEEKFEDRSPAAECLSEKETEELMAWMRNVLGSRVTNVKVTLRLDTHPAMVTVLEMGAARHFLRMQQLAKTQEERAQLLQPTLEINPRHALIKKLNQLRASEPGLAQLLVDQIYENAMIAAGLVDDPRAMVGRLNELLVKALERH
Description: Binding affinity to recombinant human Trap-1 by fluorescence polarization assay

Experiment [5] has as its target T5, Endoplasmin (Canis lupus familiaris, UniProt P41148). The experiment in a line: Binding affinity to dog Grp94 by fluorescence polarization assay. The settings on record: read-out: Kd(app).
In experiment [6] the target is T3, Heat shock protein HSP90 (Homo sapiens). Briefly: Binding affinity to HSP90 in human SKBR3 cell lysates at 3 nM after 8 hrs by fluorescence polarization assay. The settings on record: SK-BR-3. In kind it is protein assay.
The target in experiment [7] is T1, Heat shock protein HSP 90-beta. The experiment in a line: Binding affinity to HSP90beta (unknown origin).
Experiment [8] deals with T2, Heat shock protein HSP 90-alpha. The experiment in a line: Binding affinity to HSP90alpha (unknown origin).
Experiment [9] has the same target.
In experiment [10] the target is T4, Heat shock protein 75 kDa, mitochondrial. This is another data set of the same source.
Experiment [11] has as its target T1, Heat shock protein HSP 90-beta.
Experiment [12] addresses Endoplasmin (Homo sapiens) (UniProt P14625). The experiment in a line: Binding affinity to GRP94 (unknown origin).
Experiment [13] addresses T5, Endoplasmin.
Experiment [14] deals with T3, Heat shock protein HSP90 (Homo sapiens). Briefly: Binding affinity to HSP90 (unknown origin). In kind it is protein assay.
A further experiment is filed under the species Homo sapiens. The experiment in a line: Ratio of binding affinity to HASP90 (unknown origin) to TRAP1 (unknown origin).
For experiment [15], the target named is T6, Heat shock protein 75 kDa, mitochondrial (Homo sapiens) (UniProt Q12931).
T6 sequence (whole entry): T4 sequence (Q12931 whole entry)
The experiment in a line: Binding affinity to TRAP1 (unknown origin).

T5 sequence (P41148 whole entry): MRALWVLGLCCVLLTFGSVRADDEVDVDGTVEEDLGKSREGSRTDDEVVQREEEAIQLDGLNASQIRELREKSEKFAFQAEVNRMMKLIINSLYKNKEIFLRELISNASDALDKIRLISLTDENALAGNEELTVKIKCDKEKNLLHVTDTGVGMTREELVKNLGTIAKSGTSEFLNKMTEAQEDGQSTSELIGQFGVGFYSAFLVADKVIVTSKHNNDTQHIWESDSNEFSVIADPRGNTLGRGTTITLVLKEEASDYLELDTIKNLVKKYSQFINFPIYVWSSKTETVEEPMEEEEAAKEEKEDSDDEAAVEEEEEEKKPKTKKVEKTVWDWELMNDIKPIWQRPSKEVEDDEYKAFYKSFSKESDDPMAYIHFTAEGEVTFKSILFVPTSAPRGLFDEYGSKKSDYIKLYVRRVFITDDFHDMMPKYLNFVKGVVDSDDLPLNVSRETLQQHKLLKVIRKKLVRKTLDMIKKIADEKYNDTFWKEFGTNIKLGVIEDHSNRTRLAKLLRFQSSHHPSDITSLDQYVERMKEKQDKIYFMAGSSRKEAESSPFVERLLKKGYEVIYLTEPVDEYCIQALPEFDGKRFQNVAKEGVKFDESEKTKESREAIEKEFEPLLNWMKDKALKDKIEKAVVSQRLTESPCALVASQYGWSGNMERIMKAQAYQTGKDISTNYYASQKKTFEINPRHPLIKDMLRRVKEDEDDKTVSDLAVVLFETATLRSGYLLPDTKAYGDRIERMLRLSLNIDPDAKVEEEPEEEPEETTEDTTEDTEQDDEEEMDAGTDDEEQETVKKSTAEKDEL
T1 sequence (P08238 whole entry): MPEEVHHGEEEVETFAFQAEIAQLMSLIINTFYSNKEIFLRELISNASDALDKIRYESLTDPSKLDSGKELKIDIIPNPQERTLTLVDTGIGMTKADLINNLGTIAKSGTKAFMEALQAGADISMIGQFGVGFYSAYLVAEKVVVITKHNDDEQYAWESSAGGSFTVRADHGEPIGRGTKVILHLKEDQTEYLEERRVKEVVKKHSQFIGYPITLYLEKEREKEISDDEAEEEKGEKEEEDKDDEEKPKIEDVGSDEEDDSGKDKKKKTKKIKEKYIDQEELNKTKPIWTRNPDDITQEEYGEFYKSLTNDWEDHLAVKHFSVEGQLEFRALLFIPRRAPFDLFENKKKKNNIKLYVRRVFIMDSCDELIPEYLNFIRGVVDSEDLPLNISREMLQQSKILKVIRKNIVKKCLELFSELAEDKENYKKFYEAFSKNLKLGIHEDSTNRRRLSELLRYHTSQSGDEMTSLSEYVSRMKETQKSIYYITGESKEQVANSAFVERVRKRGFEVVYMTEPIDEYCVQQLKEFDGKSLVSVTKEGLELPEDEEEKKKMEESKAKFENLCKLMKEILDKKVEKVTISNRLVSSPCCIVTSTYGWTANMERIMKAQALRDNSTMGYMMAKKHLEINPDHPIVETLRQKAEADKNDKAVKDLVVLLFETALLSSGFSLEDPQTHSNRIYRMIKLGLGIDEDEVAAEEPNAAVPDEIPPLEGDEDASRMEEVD
Chain of Endoplasmin (Homo sapiens) (P14625 whole entry): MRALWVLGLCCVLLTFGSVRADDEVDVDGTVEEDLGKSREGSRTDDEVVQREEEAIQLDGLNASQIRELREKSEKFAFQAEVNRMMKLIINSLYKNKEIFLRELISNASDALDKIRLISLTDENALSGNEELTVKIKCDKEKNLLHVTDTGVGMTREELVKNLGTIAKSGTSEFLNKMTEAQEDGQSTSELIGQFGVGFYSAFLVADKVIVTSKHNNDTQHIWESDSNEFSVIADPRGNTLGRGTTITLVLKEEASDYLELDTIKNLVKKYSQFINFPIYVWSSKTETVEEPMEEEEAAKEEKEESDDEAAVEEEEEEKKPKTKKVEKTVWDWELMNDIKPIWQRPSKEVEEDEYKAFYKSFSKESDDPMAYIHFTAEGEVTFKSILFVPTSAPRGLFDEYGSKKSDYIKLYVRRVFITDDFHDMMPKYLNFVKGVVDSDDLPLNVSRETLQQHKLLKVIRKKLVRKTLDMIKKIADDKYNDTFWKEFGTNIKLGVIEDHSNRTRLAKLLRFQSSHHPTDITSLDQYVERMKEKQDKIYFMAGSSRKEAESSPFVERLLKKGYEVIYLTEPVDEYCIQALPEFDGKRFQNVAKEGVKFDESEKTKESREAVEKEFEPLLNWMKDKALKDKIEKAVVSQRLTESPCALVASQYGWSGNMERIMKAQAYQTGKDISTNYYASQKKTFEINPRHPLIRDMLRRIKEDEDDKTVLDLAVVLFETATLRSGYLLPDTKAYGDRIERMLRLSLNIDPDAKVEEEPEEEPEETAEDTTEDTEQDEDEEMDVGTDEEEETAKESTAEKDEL

Turning to `CC(C)N(CCCn1c(Sc2cc3c(cc2I)OCO3)nc2c(N)ncnc21)C(=S)Nc1ccc(-c2c3ccc(=O)cc-3oc3cc(O)ccc23)c(C(=O)O)c1`, the Kd turned out to be 2.8 nM in experiment [1], 3.9 nM in experiment [2], 5.8 nM in experiment [4] and 30.7 nM on Endoplasmin [5]. In addition, in experiment [3], the outcome was Active.
For the molecule `CO[C@H]1/C=C\C=C(/C)C(=O)NC2=CC(=O)C(NCCCCNC(=O)Cc3ccc4c(c3)C(C)(C)C3=[N+]4CCC4OC5CCN6C(=C5C=C34)C(C)(C)c3cc(S(=O)(=O)[O-])ccc36)=C(C[C@@H](C)C[C@H](OC)[C@H](O)[C@@H](C)/C=C(\C)[C@@H]1OC(N)=O)C2=O` (stereo partly specified), the Kd in experiment [1] is 2.2 nM; in experiment [2], 0.7 nM; in experiment [4] it was 51.8 nM; at Endoplasmin [5], 2.5 nM.
As for `Nc1ncnc2c1nc(Sc1cc3c(cc1I)OCO3)n2CCCNC(=S)Nc1ccc(-c2c3ccc(=O)cc-3oc3cc(O)ccc23)c(C(=O)O)c1`, the Kd in experiment [1] is 1.6 nM; in experiment [2], 1.4 nM; at Endoplasmin [5] it was 6.6 nM. Also, the outcome in experiment [6] and in experiment [3] was Active.
Consider `Nc1ncnc2c1nc(Sc1cc3c(cc1I)OCO3)n2CCCCCCCCNC(=S)Nc1ccc(-c2c3ccc(=O)cc-3oc3cc(O)ccc23)c(C(=O)O)c1`, for which the result in experiment [3] was inactive.
The same measure, in the same setting: for `Nc1ncnc2c1nc(Sc1cc3c(cc1I)OCO3)n2CCCCCCNC(=S)Nc1ccc(-c2c3ccc(=O)cc-3oc3cc(O)ccc23)c(C(=O)O)c1` the value was “Active”.
On to `Nc1ncnc2c1nc(Sc1cc3c(cc1I)OCO3)n2CCCCNC(=S)Nc1ccc(-c2c3ccc(=O)cc-3oc3cc(O)ccc23)c(C(=O)O)c1`, for which the result in experiment [3] was Active.
Take `Nc1ncnc2c1ncn2[C@@H]1O[C@H](COP(=O)(O)OP(=O)(O)O)[C@@H](O)[C@H]1O` [ADENOSINE DIPHOSPHATE]: the Activity in [7] was found to be 34 µM; in experiment [8] it was 51 µM; in [12], 2.3 µM; in [14], 41 µM. Also, the IC50 (as a rule, the point on the concentration scale where inhibition reaches its midpoint) in experiment [9] turned out to be 59300 nM; in [10], 55600 nM; in [11], 42200 nM; against Endoplasmin [13] it was 11400 nM.
As to `Nc1ncnc2c1ncn2[C@@H]1O[C@H](COP(=O)(O)OP(=O)(O)OP(=O)(O)O)[C@@H](O)[C@H]1O` [ADENOSINE TRIPHOSPHATE], the Ratio in the experiment listed under Homo sapiens is 10. In addition, the IC50 in [9] was 861000 nM; in [10], 31300 nM; in [11] it was 894000 nM; against Endoplasmin [13], 3240 nM. The Activity came to 31.3 µM in experiment [15], 3.4 µM in experiment [12] and 840 µM in [14].
Molecule `CC(C)c1cc(-c2n[nH]c(=O)n2-c2ccc3c(ccn3C)c2)c(O)cc1O` [GANETESPIB] gave a 50% inhibitory concentration (IC50) at Endoplasmin [13] of 10 nM.
On to `C=CCNC1=C2C[C@@H](C)C[C@H](OC)[C@H](O)[C@@H](C)/C=C(\C)[C@H](OC(N)=O)[C@@H](OC)/C=C\C=C(/C)C(=O)NC(=CC1=O)C2=O` [TANESPIMYCIN], for which the IC50 in experiment [10] was found to be 1500 nM; on Endoplasmin [13], 31 nM.
